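Compound exposure: 48 hours, 5 concentrations, 96-well plates. TGI marks complete inhibition of growth.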 Bounds are passed on as bounds.

Test systems include SK-MEL-28 melanoma; 786-0 renal; SN12C renal; DU-145 prostate; OVCAR-8 ovarian; UACC-257 melanoma; SR leukemia; ACHN renal; HCT-15 colon; NCI-H460 lung; A498 renal; T-47D breast; MDA-MB-435; CAKI-1 renal; HT29 colon; NCI-H226 lung; MDA-MB-231 breast; BT-549 breast; SK-OV-3 ovarian; NCI-H522 lung.
Common to all, as to test: NCI anticancer screen, dose series, 48 h

As for `Nc1ncc(Sc2ccccc2C(=O)O)s1`, the TGI in the test with SK-MEL-28 melanoma, in the test on 786-0 renal, with SN12C renal, with DU-145 prostate, in the test on OVCAR-8 ovarian and in the test with UACC-257 melanoma was above 100 µM each time. Besides, the TGI with SR leukemia, with ACHN renal, in the test with HCT-15 colon, in the test on NCI-H460 lung, in the test on A498 renal and in the test on T-47D breast was above 100 µM throughout. Also, the TGI in the test on MDA-MB-435, with CAKI-1 renal, in the test with HT29 colon, in the test on NCI-H226 lung, with MDA-MB-231 breast and with BT-549 breast was above 100 µM each time.
In the case of `Cc1cc(OC(=O)Nc2ccc(Cl)cc2)ccc1C(=S)Nc1ccccc1`, the TGI in the test with SK-MEL-28 melanoma, with 786-0 renal, in the test with SN12C renal, with OVCAR-8 ovarian, in the test with UACC-257 melanoma and in the test with SR leukemia was above 100 µM in each case. The TGI in the test with ACHN renal, in the test with HCT-15 colon, with NCI-H460 lung, in the test on A498 renal, in the test on T-47D breast and in the test on MDA-MB-435 was above 100 µM in each case. Also, the TGI in the test with CAKI-1 renal, in the test on HT29 colon, in the test on SK-OV-3 ovarian, in the test with NCI-H522 lung and in the test with BT-549 breast was above 100 µM each time.
`N#C[C@H](C(=O)c1ccccc1F)c1nc2ccccc2[nH]1`: the TGI in the test on SK-MEL-28 melanoma, in the test on 786-0 renal, with SN12C renal, in the test on DU-145 prostate, in the test on OVCAR-8 ovarian and with UACC-257 melanoma was above 100 µM in each case. The TGI in the test on SR leukemia, with ACHN renal, in the test on HCT-15 colon, in the test with NCI-H460 lung, with A498 renal and with T-47D breast was above 100 µM each time. Besides, the TGI with MDA-MB-435, in the test on CAKI-1 renal, in the test on HT29 colon, with NCI-H226 lung, with MDA-MB-231 breast and in the test on SK-OV-3 ovarian was above 100 µM in each case. In addition, the TGI in the test on BT-549 breast is above 100 µM.
Take `CC1=CC(=O)c2c(O)c3c(c(O)c2C1=O)C1C(O)C(C3=O)C23C(=O)c4c(O)c(C)cc(O)c4C(O)=C2C(=O)CC(O)C13` (centres undefined): the TGI with SK-MEL-28 melanoma stood at 6.78 µM; in the test on 786-0 renal it was 5.69 µM; in the test with SN12C renal it was 5.55 µM; in the test on DU-145 prostate, 3.61 µM; in the test with OVCAR-8 ovarian, 8.65 µM; in the test on UACC-257 melanoma, 3.5 µM. Moreover, the TGI came out at 6.52 µM with SR leukemia; 7.44 µM with ACHN renal; 6.91 µM in the test with HCT-15 colon; 5.23 µM in the test with NCI-H460 lung; 3.37 µM in the test with A498 renal; 5.75 µM in the test on T-47D breast. Besides, the TGI was found to be 2.81 µM in the test on MDA-MB-435; 3.57 µM in the test on CAKI-1 renal; 7.05 µM in the test on HT29 colon; 6.56 µM with NCI-H226 lung; 9.89 µM in the test with MDA-MB-231 breast; 6.86 µM in the test on SK-OV-3 ovarian. This compound also yielded a TGI in the test on BT-549 breast of 17.9 µM.
As to `Nc1ncnc2c1N=C(c1ccccc1)CC(c1ccccc1)N2` (centres undefined), the TGI in the test on SK-MEL-28 melanoma, in the test on 786-0 renal, in the test on SN12C renal, in the test on DU-145 prostate, with OVCAR-8 ovarian and in the test on UACC-257 melanoma was above 100 µM each time. Further, the TGI with SR leukemia, in the test on ACHN renal, in the test on HCT-15 colon, in the test on T-47D breast, in the test on MDA-MB-435 and in the test with CAKI-1 renal was above 100 µM each time. The TGI in the test on HT29 colon, with NCI-H226 lung, with MDA-MB-231 breast, in the test with SK-OV-3 ovarian, in the test with NCI-H522 lung and in the test on BT-549 breast was above 100 µM in each case.
As for `CCN(CC)Cc1ccc(Nc2c3ccccc3nc3ccccc23)cc1`, the TGI stood at 4.69 µM in the test on SK-MEL-28 melanoma; 10 µM with 786-0 renal; 7.66 µM in the test on SN12C renal; 7.01 µM with DU-145 prostate; 15 µM in the test on OVCAR-8 ovarian; 3.21 µM in the test with UACC-257 melanoma. Also, the TGI turned out to be 22.2 µM in the test on SR leukemia; 1.22 µM in the test with ACHN renal; 2.56 µM in the test with HCT-15 colon; 3.05 µM in the test on NCI-H460 lung; 9.41 µM in the test on A498 renal; 16.7 µM in the test with T-47D breast. Moreover, the TGI with MDA-MB-435 turned out to be 4.17 µM; with CAKI-1 renal it was 4.66 µM; in the test on HT29 colon, 22.3 µM; in the test on MDA-MB-231 breast it was 4.64 µM; with SK-OV-3 ovarian it was 5.56 µM; in the test with NCI-H522 lung, 3.56 µM. Besides, the TGI in the test with BT-549 breast turned out to be 23.6 µM.
For `CC(=O)Oc1ccc(/C=C/C(=O)NCCOC(=O)/C=C/c2ccc(OC(C)=O)c(OC(C)=O)c2)cc1OC(C)=O`, the TGI was above 100 µM in the test with SK-MEL-28 melanoma; 84.9 µM with 786-0 renal; 68.5 µM in the test on SN12C renal; above 100 µM in the test with DU-145 prostate; above 100 µM with OVCAR-8 ovarian; above 100 µM in the test on UACC-257 melanoma. Moreover, the TGI in the test with SR leukemia is above 100 µM; with ACHN renal, above 100 µM; with HCT-15 colon, above 100 µM; in the test with NCI-H460 lung, above 100 µM; in the test with A498 renal, above 100 µM; in the test with T-47D breast it was 98.9 µM. For the same compound, the TGI is above 100 µM with MDA-MB-435; above 100 µM in the test with CAKI-1 renal; above 100 µM in the test with HT29 colon; above 100 µM in the test on MDA-MB-231 breast; above 100 µM in the test on SK-OV-3 ovarian; 29.6 µM in the test with NCI-H522 lung. The compound further returned a TGI in the test on BT-549 breast above 100 µM.

Values taken from PubChem BioAssay (NCI).
